According to article PMC11864979, “First-in-class ultralong-target-residence-time p38α inhibitors as a mitosis-targeted therapy for colorectal cancer” (Nature Cancer, 2025):
Read-outs that look alike come from different tables or passages of the source.

What was measured:
Test in all cases: selectivity profiling in a panel of 340 wild-type kinases (Reaction Biology Europe)
Format in all cases: binding
[1] = biological target: T1, 340 wild-type kinases (Homo sapiens, UniProt P07333)
T1 construct: purchased Reaction Biology Europe
T1 sequence (P07333 20-972): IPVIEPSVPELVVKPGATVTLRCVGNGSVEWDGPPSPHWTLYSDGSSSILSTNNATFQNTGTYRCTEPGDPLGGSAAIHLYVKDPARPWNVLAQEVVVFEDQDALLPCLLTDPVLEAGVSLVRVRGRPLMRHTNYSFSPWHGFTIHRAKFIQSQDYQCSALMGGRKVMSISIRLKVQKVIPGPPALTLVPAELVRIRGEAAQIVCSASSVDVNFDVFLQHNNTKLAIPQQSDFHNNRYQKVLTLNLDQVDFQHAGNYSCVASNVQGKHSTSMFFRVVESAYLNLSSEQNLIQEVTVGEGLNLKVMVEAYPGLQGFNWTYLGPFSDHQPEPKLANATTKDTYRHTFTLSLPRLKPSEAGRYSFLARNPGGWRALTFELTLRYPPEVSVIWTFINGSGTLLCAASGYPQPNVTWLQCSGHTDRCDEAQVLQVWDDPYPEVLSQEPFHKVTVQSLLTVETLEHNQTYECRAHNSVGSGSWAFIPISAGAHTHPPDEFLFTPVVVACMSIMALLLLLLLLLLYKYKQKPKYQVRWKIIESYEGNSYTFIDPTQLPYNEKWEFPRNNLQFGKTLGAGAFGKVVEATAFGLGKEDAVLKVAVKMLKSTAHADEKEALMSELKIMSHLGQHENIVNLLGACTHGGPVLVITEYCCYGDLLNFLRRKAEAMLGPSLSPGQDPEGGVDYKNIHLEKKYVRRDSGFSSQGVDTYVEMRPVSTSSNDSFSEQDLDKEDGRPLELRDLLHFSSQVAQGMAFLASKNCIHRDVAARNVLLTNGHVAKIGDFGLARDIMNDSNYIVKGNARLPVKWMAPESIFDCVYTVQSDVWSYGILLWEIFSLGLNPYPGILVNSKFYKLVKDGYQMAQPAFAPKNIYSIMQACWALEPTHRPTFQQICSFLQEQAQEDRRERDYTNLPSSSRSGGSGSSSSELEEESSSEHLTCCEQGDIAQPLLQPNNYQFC

[2] = biological target: T2, 340 wild-type kinases (Homo sapiens, UniProt P15056)
T2 construct: purchased Reaction Biology Europe

[3] = biological target: T3, 340 wild-type kinases (Homo sapiens, UniProt P35626)
T3 construct: purchased Reaction Biology Europe
T3 sequence (P35626 1-688): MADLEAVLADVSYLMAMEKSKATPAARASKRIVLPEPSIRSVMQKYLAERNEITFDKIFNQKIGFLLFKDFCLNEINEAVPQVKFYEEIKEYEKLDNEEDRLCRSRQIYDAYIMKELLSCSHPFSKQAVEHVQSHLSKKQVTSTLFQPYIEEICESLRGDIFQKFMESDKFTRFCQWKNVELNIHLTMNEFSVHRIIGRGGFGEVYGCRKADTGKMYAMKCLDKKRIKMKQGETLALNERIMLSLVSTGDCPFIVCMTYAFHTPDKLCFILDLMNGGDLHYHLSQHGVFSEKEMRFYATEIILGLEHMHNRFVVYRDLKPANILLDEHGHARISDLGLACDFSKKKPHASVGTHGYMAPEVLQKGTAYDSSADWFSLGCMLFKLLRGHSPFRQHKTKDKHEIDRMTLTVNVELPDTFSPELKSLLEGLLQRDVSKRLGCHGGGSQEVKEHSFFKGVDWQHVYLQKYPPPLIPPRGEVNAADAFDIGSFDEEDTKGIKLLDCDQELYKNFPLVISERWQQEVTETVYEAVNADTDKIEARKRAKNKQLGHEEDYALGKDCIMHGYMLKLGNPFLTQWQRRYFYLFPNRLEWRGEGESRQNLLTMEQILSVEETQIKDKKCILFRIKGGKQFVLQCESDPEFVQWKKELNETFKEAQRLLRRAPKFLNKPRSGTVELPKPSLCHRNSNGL

[4] = biological target: T4, 340 wild-type kinases (Homo sapiens, UniProt P43250)
T4 construct: purchased Reaction Biology Europe
T4 sequence (P43250 whole entry): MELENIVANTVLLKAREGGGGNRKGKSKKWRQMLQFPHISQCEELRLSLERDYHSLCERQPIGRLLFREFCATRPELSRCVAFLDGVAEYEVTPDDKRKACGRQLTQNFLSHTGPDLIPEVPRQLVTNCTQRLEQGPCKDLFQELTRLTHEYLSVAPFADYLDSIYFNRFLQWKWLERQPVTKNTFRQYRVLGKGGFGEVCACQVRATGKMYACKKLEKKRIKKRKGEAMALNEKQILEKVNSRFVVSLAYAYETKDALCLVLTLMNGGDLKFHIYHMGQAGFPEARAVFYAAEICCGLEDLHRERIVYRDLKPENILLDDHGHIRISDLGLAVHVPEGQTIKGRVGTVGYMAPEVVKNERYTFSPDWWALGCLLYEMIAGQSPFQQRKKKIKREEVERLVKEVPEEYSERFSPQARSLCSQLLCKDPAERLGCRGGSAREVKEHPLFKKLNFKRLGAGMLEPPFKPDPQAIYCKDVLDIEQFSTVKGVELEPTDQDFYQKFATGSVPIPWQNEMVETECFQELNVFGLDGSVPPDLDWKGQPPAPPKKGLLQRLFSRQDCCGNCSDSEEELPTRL

[5] = biological target: T5, 340 wild-type kinases (Homo sapiens, UniProt P51817)
T5 construct: purchased Reaction Biology Europe
T5 sequence (P51817 1-358): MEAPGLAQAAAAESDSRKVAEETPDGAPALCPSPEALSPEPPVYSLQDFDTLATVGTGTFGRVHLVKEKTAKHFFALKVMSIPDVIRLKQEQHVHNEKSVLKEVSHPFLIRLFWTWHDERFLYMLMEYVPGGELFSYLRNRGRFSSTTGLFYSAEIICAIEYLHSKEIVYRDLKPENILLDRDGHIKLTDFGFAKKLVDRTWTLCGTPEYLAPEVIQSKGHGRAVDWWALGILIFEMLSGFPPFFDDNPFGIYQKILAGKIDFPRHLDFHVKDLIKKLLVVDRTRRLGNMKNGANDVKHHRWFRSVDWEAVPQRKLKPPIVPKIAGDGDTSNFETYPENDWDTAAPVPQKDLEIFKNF

[6] = biological target: T6, 340 wild-type kinases (Homo sapiens, UniProt P53667)
T6 construct: purchased Reaction Biology Europe
T6 sequence (P53667 whole entry): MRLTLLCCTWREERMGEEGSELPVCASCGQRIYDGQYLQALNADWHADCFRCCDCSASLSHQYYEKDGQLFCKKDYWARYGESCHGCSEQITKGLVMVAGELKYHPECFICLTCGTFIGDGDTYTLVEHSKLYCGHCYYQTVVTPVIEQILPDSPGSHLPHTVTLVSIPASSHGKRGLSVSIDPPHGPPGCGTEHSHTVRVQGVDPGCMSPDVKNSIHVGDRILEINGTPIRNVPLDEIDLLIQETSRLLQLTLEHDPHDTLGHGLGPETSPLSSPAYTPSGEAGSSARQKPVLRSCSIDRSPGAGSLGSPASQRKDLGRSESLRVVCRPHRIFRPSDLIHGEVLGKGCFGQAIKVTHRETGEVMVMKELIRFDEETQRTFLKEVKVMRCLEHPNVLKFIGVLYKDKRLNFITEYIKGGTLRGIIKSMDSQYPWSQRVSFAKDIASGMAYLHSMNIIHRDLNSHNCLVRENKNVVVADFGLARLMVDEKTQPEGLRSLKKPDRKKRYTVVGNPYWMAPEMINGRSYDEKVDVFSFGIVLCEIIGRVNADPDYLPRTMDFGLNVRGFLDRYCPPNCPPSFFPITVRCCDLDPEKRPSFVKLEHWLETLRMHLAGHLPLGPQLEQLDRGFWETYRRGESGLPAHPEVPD

[7] = biological target: T7, 340 wild-type kinases (Homo sapiens, UniProt P54756)
T7 construct: purchased Reaction Biology Europe
T7 sequence (P54756 25-1037): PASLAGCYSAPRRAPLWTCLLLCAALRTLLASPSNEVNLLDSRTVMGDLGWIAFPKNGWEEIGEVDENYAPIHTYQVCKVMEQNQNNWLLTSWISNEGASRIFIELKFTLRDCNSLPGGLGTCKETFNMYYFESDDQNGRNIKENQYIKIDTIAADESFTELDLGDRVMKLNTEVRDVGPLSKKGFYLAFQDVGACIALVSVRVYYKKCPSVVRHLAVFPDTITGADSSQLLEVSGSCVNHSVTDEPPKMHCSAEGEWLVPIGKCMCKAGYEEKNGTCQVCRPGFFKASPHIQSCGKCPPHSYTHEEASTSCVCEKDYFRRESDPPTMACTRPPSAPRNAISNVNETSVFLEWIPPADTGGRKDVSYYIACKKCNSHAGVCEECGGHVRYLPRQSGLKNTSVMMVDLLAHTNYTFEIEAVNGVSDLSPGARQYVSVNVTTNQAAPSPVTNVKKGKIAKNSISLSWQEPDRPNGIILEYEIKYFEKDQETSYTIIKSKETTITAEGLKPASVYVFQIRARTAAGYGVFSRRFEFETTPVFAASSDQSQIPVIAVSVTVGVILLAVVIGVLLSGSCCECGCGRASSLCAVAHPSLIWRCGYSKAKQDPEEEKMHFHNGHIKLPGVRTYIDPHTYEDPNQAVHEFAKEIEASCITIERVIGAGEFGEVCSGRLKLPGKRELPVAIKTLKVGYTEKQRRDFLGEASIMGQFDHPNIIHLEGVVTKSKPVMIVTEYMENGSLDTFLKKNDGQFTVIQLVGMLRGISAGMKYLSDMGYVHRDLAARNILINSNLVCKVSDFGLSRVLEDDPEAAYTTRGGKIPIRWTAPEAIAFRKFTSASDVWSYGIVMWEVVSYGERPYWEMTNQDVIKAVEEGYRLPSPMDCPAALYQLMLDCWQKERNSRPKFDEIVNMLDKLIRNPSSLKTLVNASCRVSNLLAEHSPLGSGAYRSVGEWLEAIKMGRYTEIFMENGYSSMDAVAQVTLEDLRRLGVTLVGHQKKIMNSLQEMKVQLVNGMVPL

[8] = biological target: T8, 340 wild-type kinases (Homo sapiens, UniProt Q15349)
T8 construct: purchased Reaction Biology Europe

[9] = biological target: T9, 340 wild-type kinases (Homo sapiens, UniProt Q5TCY1)
T9 construct: purchased Reaction Biology Europe
T9 sequence (Q5TCY1 whole entry): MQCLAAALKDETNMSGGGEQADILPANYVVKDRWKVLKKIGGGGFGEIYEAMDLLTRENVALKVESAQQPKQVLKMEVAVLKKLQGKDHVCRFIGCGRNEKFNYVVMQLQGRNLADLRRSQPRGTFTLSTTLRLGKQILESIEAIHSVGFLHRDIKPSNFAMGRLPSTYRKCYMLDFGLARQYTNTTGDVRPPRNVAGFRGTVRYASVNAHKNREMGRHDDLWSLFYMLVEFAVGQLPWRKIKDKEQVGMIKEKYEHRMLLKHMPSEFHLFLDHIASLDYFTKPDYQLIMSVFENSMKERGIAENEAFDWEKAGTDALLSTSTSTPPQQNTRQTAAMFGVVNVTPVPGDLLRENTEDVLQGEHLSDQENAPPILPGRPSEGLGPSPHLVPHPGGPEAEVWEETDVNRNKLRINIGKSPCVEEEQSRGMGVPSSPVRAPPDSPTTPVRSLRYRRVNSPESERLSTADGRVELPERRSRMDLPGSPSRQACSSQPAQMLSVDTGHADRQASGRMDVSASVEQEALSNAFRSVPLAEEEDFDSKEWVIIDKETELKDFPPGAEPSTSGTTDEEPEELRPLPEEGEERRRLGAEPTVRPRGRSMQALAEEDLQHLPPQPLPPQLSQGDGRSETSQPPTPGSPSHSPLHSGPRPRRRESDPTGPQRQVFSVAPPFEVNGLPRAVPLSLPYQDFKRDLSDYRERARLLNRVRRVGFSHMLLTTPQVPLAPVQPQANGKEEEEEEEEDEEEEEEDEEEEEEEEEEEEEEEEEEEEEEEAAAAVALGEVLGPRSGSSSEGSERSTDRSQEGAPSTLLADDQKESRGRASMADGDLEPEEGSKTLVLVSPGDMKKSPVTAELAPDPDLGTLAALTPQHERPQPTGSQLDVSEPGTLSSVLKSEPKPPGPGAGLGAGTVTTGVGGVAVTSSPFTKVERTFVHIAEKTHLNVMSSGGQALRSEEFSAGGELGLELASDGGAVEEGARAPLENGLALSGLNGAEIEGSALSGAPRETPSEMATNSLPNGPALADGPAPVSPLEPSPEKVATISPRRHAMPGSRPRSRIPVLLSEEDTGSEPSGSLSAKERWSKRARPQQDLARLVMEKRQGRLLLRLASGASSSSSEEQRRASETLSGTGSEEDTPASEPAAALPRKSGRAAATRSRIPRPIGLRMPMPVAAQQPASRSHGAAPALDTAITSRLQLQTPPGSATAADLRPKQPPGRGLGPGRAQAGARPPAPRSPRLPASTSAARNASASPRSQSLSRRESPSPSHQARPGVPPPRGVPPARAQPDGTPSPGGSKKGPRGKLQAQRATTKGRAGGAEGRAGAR

[10] = biological target: T10, 340 wild-type kinases (Homo sapiens, UniProt Q9NWZ3)
T10 construct: purchased Reaction Biology Europe
T10 sequence (Q9NWZ3 1-460): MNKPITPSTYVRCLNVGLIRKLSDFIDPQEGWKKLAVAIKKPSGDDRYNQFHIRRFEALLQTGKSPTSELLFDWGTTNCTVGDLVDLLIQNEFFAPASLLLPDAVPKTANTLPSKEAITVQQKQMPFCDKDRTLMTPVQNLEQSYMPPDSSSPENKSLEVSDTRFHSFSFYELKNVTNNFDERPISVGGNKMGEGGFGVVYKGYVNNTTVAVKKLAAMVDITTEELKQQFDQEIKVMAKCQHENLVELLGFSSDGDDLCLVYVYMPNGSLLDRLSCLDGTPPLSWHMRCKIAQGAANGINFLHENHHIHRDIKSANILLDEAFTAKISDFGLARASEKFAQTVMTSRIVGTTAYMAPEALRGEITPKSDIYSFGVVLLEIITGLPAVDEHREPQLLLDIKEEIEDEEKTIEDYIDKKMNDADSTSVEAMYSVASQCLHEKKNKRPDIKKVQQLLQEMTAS

Work on `CNC(=O)c1ccc2c(c1)C(=O)c1ccc(Nc3ccc(F)c(NC(=O)C4CC4)c3)cc1CC2` [Compound 2015] yielded a remaining activity at 0.2 µM ([1]; 0.2 µM 2015, read-out: CSF1R residual activity) of 97.2%, a remaining activity at 1 µM ([1]; 1 µM 2015, read-out: CSF1R residual activity) of 84% and a remaining activity at 0.2 µM ([1]; CSF1R, 0.2 µM, read-out: residual activity) of 97.2%. The remaining activity at 1 µM ([1]; CSF1R, 1 µM, read-out: residual activity) was 84%, the remaining activity at 0.2 µM ([2]; 0.2 µM 2015, read-out: BRAF residual activity) was 93.9% and the remaining activity at 1 µM ([2]; 1 µM 2015, read-out: BRAF residual activity) was 104%. The remaining activity at 0.2 µM ([2]; BRAF, 0.2 µM, read-out: residual activity) was 94%, the remaining activity at 1 µM ([2]; BRAF, 1 µM, read-out: residual activity) was 104% and the remaining activity at 0.2 µM ([3]; 0.2 µM 2015, read-out: GRK3 residual activity) was 117%. The remaining activity at 1 µM ([3]; 1 µM 2015, read-out: GRK3 residual activity) was 99.7%, the remaining activity at 0.2 µM ([3]; GRK3, 0.2 µM, read-out: residual activity) was 117% and the remaining activity at 1 µM ([3]; GRK3, 1 µM, read-out: residual activity) was 99.7%. It also gave a remaining activity at 0.2 µM ([4]; 0.2 µM 2015, read-out: GRK6 residual activity) of 111%, a remaining activity at 1 µM ([4]; 1 µM 2015, read-out: GRK6 residual activity) of 110% and a remaining activity at 0.2 µM ([4]; GRK6, 0.2 µM, read-out: residual activity) of 111%. The remaining activity at 1 µM ([4]; GRK6, 1 µM, read-out: residual activity) was 110%, the remaining activity at 0.2 µM ([5]; 0.2 µM 2015, read-out: PRKX residual activity) was 107% and the remaining activity at 1 µM ([5]; 1 µM 2015, read-out: PRKX residual activity) was 97.1%. It also gave a remaining activity at 0.2 µM ([5]; PRKX, 0.2 µM, read-out: residual activity) of 107%, a remaining activity at 1 µM ([5]; PRKX, 1 µM, read-out: residual activity) of 97% and a remaining activity at 0.2 µM ([6]; 0.2 µM 2015, read-out: LIMK1 residual activity) of 102%. It also gave a remaining activity at 1 µM ([6]; 1 µM 2015, read-out: LIMK1 residual activity) of 92.9%, a remaining activity at 0.2 µM ([6]; LIMK1, 0.2 µM, read-out: residual activity) of 102% and a remaining activity at 1 µM ([6]; LIMK1, 1 µM, read-out: residual activity) of 92.9%. The remaining activity at 0.2 µM ([7]; 0.2 µM 2015, read-out: EPHA5 residual activity) was 110%, the remaining activity at 1 µM ([7]; 1 µM 2015, read-out: EPHA5 residual activity) was 98.5% and the remaining activity at 0.2 µM ([7]; EPHA5, 0.2 µM, read-out: residual activity) was 110%. It also gave a remaining activity at 1 µM ([7]; EPHA5, 1 µM, read-out: residual activity) of 98.5%, a remaining activity at 0.2 µM ([8]; 0.2 µM 2015, read-out: RPS6KA2 residual activity) of 84.7% and a remaining activity at 1 µM ([8]; 1 µM 2015, read-out: RPS6KA2 residual activity) of 91%. For the same compound, the remaining activity at 0.2 µM ([8]; RPS6KA2, 0.2 µM, read-out: residual activity) was 84.7%, the remaining activity at 1 µM ([8]; RPS6KA2, 1 µM, read-out: residual activity) was 91% and the remaining activity at 0.2 µM ([9]; 0.2 µM 2015, read-out: TTBK1 residual activity) was 88.5%. The remaining activity at 1 µM ([9]; 1 µM 2015, read-out: TTBK1 residual activity) was 93.4%, the remaining activity at 0.2 µM ([9]; TTBK1, 0.2 µM, read-out: residual activity) was 88.5% and the remaining activity at 1 µM ([9]; TTBK1, 1 µM, read-out: residual activity) was 93.4%. For the same compound, the remaining activity at 0.2 µM ([10]; 0.2 µM 2015, read-out: IRAK4 residual activity) was 96.5%, the remaining activity at 1 µM ([10]; 1 µM 2015, read-out: IRAK4 residual activity) was 93.5% and the remaining activity at 0.2 µM ([10]; IRAK4, 0.2 µM, read-out: residual activity) was 96.5%. For the same compound, the remaining activity at 1 µM ([10]; IRAK4, 1 µM, read-out: residual activity) was 93.5%.
